Reference: US10173971B2, “Picolinamides with fungicidal activity” (DOW AGROSCIENCES LLC, priority 2014, dated 2019)
Read-outs that look alike come from different tables or passages of the source.

What was measured:
[1] = tested on: Zymoseptoria tritici; test: Fungicidal activity: leaf blotch of wheat (SEPTTR), wheat seedlings, booth sprayer to run-off or track spray; assay type: in vivo; conditions: for pest or weed control at 100 ppm: High-Volume Cereal Activity at 100 ppm; for pest or weed control at 121.5 g/ha: Low-Volume Cereal Activity at 121.5 g/H
[2] = tested on: Puccinia triticina; test: Fungicidal activity: wheat brown rust (PUCCRT), wheat seedlings, booth sprayer to run-off or track spray; assay type: in vivo; conditions: for pest or weed control at 100 ppm: High-Volume Cereal Activity at 100 ppm; for pest or weed control at 121.5 g/ha: Low-Volume Cereal Activity at 121.5 g/H
[3] = 24 h, 1 Day Protectant, read-out: SEPTTR 1DP
[4] = 24 h, 1 Day Protectant, read-out: PUCCRT 1DP
[5] = 72 h, 3 Day Curative, read-out: PUCCRT 3DC
[6] = 72 h, 3 Day Curative, read-out: SEPTTR 3DC
[7] = 3DC (Day Curative), read-out: SEPTTR 3DC
[8] = 3DC (Day Curative), read-out: PUCCRT 3DC

Row | Structure (SMILES) | pest or weed control at 100 ppm [1, 3] | pest or weed control at 100 ppm [2, 4] | pest or weed control at 121.5 g/ha [1, 3] | pest or weed control at 121.5 g/ha [2, 4] | pest or weed control at 121.5 g/ha [2, 5] | pest or weed control at 121.5 g/ha [1, 6] | pest or weed control at 100 ppm [1, 7] | pest or weed control at 100 ppm [2, 8]
1 | COc1ccnc(C(=O)N[C@@H](C)C(=O)OC(C)C(Cc2ccc(F)cc2)Cc2ccc(F)cc2)c1O (stereo partly shown) [compound 151] | 80 to 100% | 80 to 100% |  |  |  |  |  | 
2 | COC(=O)[C@@H](Cc1ccccc1)[C@H](C)OC(=O)[C@H](C)NC(=O)c1nccc(OC)c1OCOC(C)=O [compound 185] |  |  | 0 to 80% | 0 to 80% | 0 to 80% |  |  | 
3 | COc1ccnc(C(=O)N[C@@H](C)C(=O)O[C@@H](C)[C@H](Cc2ccc(Cl)c(Cl)c2)c2ccccc2)c1OCOC(=O)C(C)C [compound 219] |  |  | 0 to 80% | 0 to 80% | 0 to 80% | 0 to 80% |  | 
4 | COc1ccnc(C(=O)N[C@@H](C)C(=O)OC(C)C(Cc2ccccc2)Cc2ccccc2)c1OCOC(C)=O (stereo partly shown) [compound 265] |  |  | 80 to 100% | 80 to 100% | 0 to 80% | 0 to 80% |  | 
5 | COC[C@@H](Cc1ccc(F)cc1)[C@H](C)OC(=O)[C@H](C)NC(=O)c1nccc(OC)c1OC(C)=O [compound 231] |  |  | 0 to 80% | 0 to 80% | 0 to 80% | 0 to 80% |  | 
6 | COc1ccnc(C(=O)N[C@@H](C)C(=O)O[C@@H](C)[C@H](Cc2ccc(Cl)cc2)c2ccccc2)c1OCOC(=O)C(C)C [compound 204] |  |  | 80 to 100% | 0 to 80% | 0 to 80% | 80 to 100% |  | 
7 | COc1ccnc(C(=O)N[C@@H](C)C(=O)O[C@@H](C)[C@H](Cc2ccc(Cl)c(Cl)c2)c2ccccc2)c1O [compound 127] | 0 to 80% | 0 to 80% |  |  |  |  | 0 to 80% | 
8 | COc1cccc(CC(Cc2cccc(OC)c2)[C@H](C)OC(=O)[C@H](C)NC(=O)c2nccc(OC)c2OC(C)=O)c1 [compound 270] |  |  | 0 to 80% | 80 to 100% | 0 to 80% |  |  | 
9 | CCCO[C@@H](CC)[C@@H](Cc1ccccc1)[C@H](C)OC(=O)[C@H](CC)NC(=O)c1nccc(OC)c1OCOC(C)=O [compound 164] | 80 to 100% | 80 to 100% | 0 to 80% | 80 to 100% | 80 to 100% | 0 to 80% | 80 to 100% | 80 to 100%
10 | COc1ccnc(C(=O)N[C@@H](C)C(=O)O[C@@H](C)[C@@H](COCc2ccc(F)cc2)Cc2ccc(F)cc2)c1OC(C)=O [compound 246] |  |  | 80 to 100% | 0 to 80% | 0 to 80% | 0 to 80% |  | 
11 | CCCO[C@@H](CC)[C@@H](Cc1ccccc1)[C@H](C)OC(=O)C(C)(C)NC(=O)c1nccc(OC)c1O [compound 100] |  | 0 to 80% |  |  |  |  | 0 to 80% | 
12 | COc1ccnc(C(=O)N[C@@H](C)C(=O)OC(C)C(Cc2ccc(F)cc2)Cc2ccc(F)cc2)c1OCOC(C)=O (stereo partly shown) [compound 268] |  |  | 0 to 80% | 80 to 100% | 80 to 100% | 0 to 80% |  | 
13 | COc1ccnc(C(=O)N[C@@H](C)C(=O)O[C@@H](C)[C@@H](COc2ccccc2)Cc2ccccc2)c1OCOC(C)=O [compound 208] |  |  | 80 to 100% | 80 to 100% | 0 to 80% | 0 to 80% |  | 
14 | CC[C@H](Cc1ccccc1)[C@@H](Cc1ccc(OC(F)(F)F)cc1)[C@H](C)OC(=O)[C@H](C)NC(=O)c1nccc(OC)c1OCOC(C)=O [compound 187] |  |  | 0 to 80% | 0 to 80% | 0 to 80% | 0 to 80% |  | 
15 | CC[C@H](NC(=O)c1nccc(OC)c1O)C(=O)O[C@@H](C)C(Cc1cccc(OC)c1)Cc1cccc(OC)c1 [compound 153] | 0 to 80% | 80 to 100% |  |  |  |  | 0 to 80% | 
16 | COc1ccc(C[C@H](COc2ccc(F)cc2F)[C@H](C)OC(=O)[C@H](C)NC(=O)c2nccc(OC)c2O)cc1 [compound 160] | 0 to 80% | 80 to 100% |  |  |  |  |  | 
17 | CCCO[C@@H](CC)[C@@H](Cc1ccccc1)[C@H](C)OC(=O)[C@H](C)NC(=O)c1nccc(OC)c1O [compound 91] | 0 to 80% | 80 to 100% |  |  |  |  | 80 to 100% | 80 to 100%
18 | CC[C@H](NC(=O)c1nccc(OC)c1OC(C)=O)C(=O)O[C@@H](C)C(Cc1cccc(OC)c1)Cc1cccc(OC)c1 [compound 271] |  |  | 0 to 80% | 0 to 80% |  |  |  | 
